According to US4051315A, “6"-Deoxykanamycin B and 6"-deoxytobramycin” (priority 1975, dated 1977):
Values after ≈ are worked out from the molar mass of the structure shown. Where two headings read alike, the source gives them in different places.

Columns and labels:
Format in all cases: cell-based
[1] = tested on: E. coli A20107 NPT-2; assay: two-fold agar dilution MIC, Ec-49; settings: Escherichia coli
[2] = tested on: a variety of gram-positive and gram-negative bacteria; assay: antibacterial activity by two-fold agar dilution method, overall statement
[3] = tested on: E. coli JR35/C600 NPT-1; assay: two-fold agar dilution MIC, Ec-10
[4] = tested on: P. stuartii A20894 GAT-2; assay: two-fold agar dilution MIC, Ps-2; settings: Ps-2
[5] = tested on: E. coli A20732 GAS; assay: two-fold agar dilution MIC, Ec-72; settings: Escherichia coli, A20732GAS
[6] = tested on: P. vulgaris A9436; assay: two-fold agar dilution MIC, Pv-1
[7] = tested on: Pseudomonas sp. A20621 KAT, NPT-1,2; assay: two-fold agar dilution MIC, Px-10
[8] = tested on: E. coli NR79/W677 KAT; assay: two-fold agar dilution MIC, Ec-9; settings: Escherichia coli, NR79/W677KAT
[9] = tested on: P. aeruginosa GN-4925; assay: two-fold agar dilution MIC, Pa-45; settings: Pseudomonas aeruginosa
[10] = tested on: S. aureus D133 SH, Sth-R; assay: two-fold agar dilution MIC, Sa-4
[11] = tested on: E. cloacae A21006 NPT-2; assay: two-fold agar dilution MIC, E1-12
[12] = tested on: P. aeruginosa #130 GAT-1, NPT; assay: two-fold agar dilution MIC, Pa-16
[13] = tested on: S. aureus Smith; assay: two-fold agar dilution MIC, Sa-2; settings: Staphylococcus aureus
[14] = tested on: P. aeruginosa A20601 GAT-1; assay: two-fold agar dilution MIC, Pa-21; settings: Pseudomonas aeruginosa
[15] = tested on: P. mirabilis A9554 CL-R; assay: two-fold agar dilution MIC, Pm-1
[16] = tested on: S. marcescens A20019; assay: two-fold agar dilution MIC, Sm-1
[17] = tested on: S. marcescens A21247 NPT-1, GAS; assay: two-fold agar dilution MIC, Sm-16; settings: Serratia marcescens
[18] = tested on: E. coli JR66/W677 NPT-2, GAS; assay: two-fold agar dilution MIC, Ec-53
[19] = tested on: B. subtilis PCT-219; assay: two-fold agar dilution MIC, Bs-1; settings: Bacillus subtilis
[20] = tested on: P. aeruginosa A20653 NPT-1,2; assay: two-fold agar dilution MIC, Pa-12; settings: Pseudomonas aeruginosa
[21] = tested on: P. aeruginosa A20896 GAT-3; assay: two-fold agar dilution MIC, Pa-24
[22] = tested on: E. coli P01495 CP.TC-R; assay: two-fold agar dilution MIC, Ec-2; settings: Escherichia coli, P01495CP.TCR
[23] = tested on: S. aureus A20239 NPT-1,2; assay: two-fold agar dilution MIC, Sa-10
[24] = tested on: E. coli R5 KAT; assay: two-fold agar dilution MIC, Ec-55
[25] = tested on: P. aeruginosa A9930; assay: two-fold agar dilution MIC, Pa-3; settings: Pseudomonas aeruginosa
[26] = tested on: E. cloacae A20364 NPT-1; assay: two-fold agar dilution MIC, E1-2; settings: Enterobacter cloacae
[27] = tested on: K. pneumoniae D11; assay: two-fold agar dilution MIC, Kp-1; settings: Klebsiella pneumoniae
[28] = tested on: E. coli JR88 CAT-1; assay: two-fold agar dilution MIC, Ec-62
[29] = tested on: K. pneumoniae 22-3038 NPT-2, GAS; assay: two-fold agar dilution MIC, Kp-8
[30] = tested on: E. coli NIHJ; assay: two-fold agar dilution MIC, Ec-1
[31] = tested on: S. aureus D137 PC, TC, EM-R; assay: two-fold agar dilution MIC, Sa-9
[32] = tested on: P. aeruginosa GN-315 KAT; assay: two-fold agar dilution MIC, Pa-27
[33] = tested on: E. coli ML1630 NPT-1; assay: two-fold agar dilution MIC, Ec-5; settings: Escherichia coli
[34] = Staphylococcus aureus, Run 1, read-out: MIC

For `CC1OC(OC2C(N)CC(N)C(OC3OC(CN)C(O)CC3N)C2O)C(O)C(N)C1O` (centres unmarked) [compound 6, 6"-Deoxytobramycin], the MIC ([1]; A20107NPT2, Run 1) was 1.6 µg/mL (≈ 3.54 µM), the MIC ([1]; A20107NPT2, Run 2) was 0.8 µg/mL (≈ 1.77 µM) and the antibacterial activity [2] was “excellent antibacterial activity”. For the same compound, the MIC ([3]; Escherichia coli, JR35/C600NPT1) was 0.8 µg/mL (≈ 1.77 µM), the MIC ([3]; Run 2, Ec-10) was 0.8 µg/mL (≈ 1.77 µM) and the MIC ([4]; Providencia stuartii, A20894GAT2, Run 1, read-out: MIC) was 25 µg/mL (≈ 55.4 µM). For the same compound, the MIC ([4]; Run 2) was 25 µg/mL (≈ 55.4 µM), the MIC ([5]; Run 1) was 50 µg/mL (≈ 111 µM) and the MIC ([5]; Run 2) was 25 µg/mL (≈ 55.4 µM). The MIC ([6]; Proteus vulgaris, A9436, Run 1, read-out: MIC) was 0.2 µg/mL (≈ 0.443 µM), the MIC ([6]; Run 2) was 0.2 µg/mL (≈ 0.443 µM) and the MIC ([7]; Pseudomonas, Run 1, read-out: MIC) was 50 µg/mL (≈ 111 µM). For the same compound, the MIC ([7]; Run 2) was 50 µg/mL (≈ 111 µM), the MIC ([8]; Run 1) was 1.6 µg/mL (≈ 3.54 µM) and the MIC ([8]; Run 2) was 0.8 µg/mL (≈ 1.77 µM). The MIC ([9]; GN4925, Run 1) was 100 µg/mL (≈ 221 µM), the MIC ([9]; GN4925, Run 2) was 100 µg/mL (≈ 221 µM) and the MIC ([10]; Run 2) was 1.6 µg/mL (≈ 3.54 µM). The MIC [10, 34] was 1.6 µg/mL (≈ 3.54 µM), the MIC ([11]; Enterobacter cloacae, A21006NPT2) was 1.6 µg/mL (≈ 3.54 µM) and the MIC ([11]; Run 2, E1-12) was 1.6 µg/mL (≈ 3.54 µM). It also gave an MIC ([12]; Pseudomonas aeruginosa, Run 1, read-out: MIC) of 6.3 µg/mL (≈ 14 µM), an MIC ([12]; Run 2) of 6.3 µg/mL (≈ 14 µM) and an MIC ([13]; Run 1) of 0.2 µg/mL (≈ 0.443 µM). It also gave an MIC ([13]; Run 2) of 0.1 µg/mL (≈ 0.221 µM), an MIC ([14]; A20601GAT1, Run 1) of 3.1 µg/mL (≈ 6.87 µM) and an MIC ([14]; A20601GAT1, Run 2) of 3.1 µg/mL (≈ 6.87 µM). It also gave an MIC ([15]; Proteus mirabilis, A9554CLR, Run 1, read-out: MIC) of 0.8 µg/mL (≈ 1.77 µM), an MIC ([15]; Run 2) of 0.8 µg/mL (≈ 1.77 µM) and an MIC ([16]; Run 2) of 6.3 µg/mL (≈ 14 µM). The MIC ([16]; Serratia marcescens, A20019, Run 1, read-out: MIC) was 6.3 µg/mL (≈ 14 µM), the MIC ([17]; Run 1) was 100 µg/mL (≈ 221 µM) and the MIC ([17]; Run 2) was 50 µg/mL (≈ 111 µM). The MIC ([18]; Escherichia coli) was 25 µg/mL (≈ 55.4 µM), the MIC ([18]; Run 2, Ec-53) was 25 µg/mL (≈ 55.4 µM) and the MIC ([19]; PCT219, Run 1) was < 0.05 µg/mL. For the same compound, the MIC ([19]; PCT219, Run 2) was < 0.05 µg/mL, the MIC ([20]; Run 1) was 6.3 µg/mL (≈ 14 µM) and the MIC ([20]; Run 2) was 3.1 µg/mL (≈ 6.87 µM). For the same compound, the MIC ([21]; Pseudomonas aeruginosa, A20896GAT3, Run 1, read-out: MIC) was > 100 µg/mL, the MIC ([21]; Run 2) was > 100 µg/mL and the MIC ([22]; Run 1) was 0.8 µg/mL (≈ 1.77 µM). It also gave an MIC ([22]; Run 2) of 0.8 µg/mL (≈ 1.77 µM), an MIC ([23]; Run 2, Sa-10) of 0.8 µg/mL (≈ 1.77 µM) and an MIC ([23]; Staphylococcus aureus) of 0.8 µg/mL (≈ 1.77 µM). It also gave an MIC ([24]; Escherichia coli, R5KAT) of 0.4 µg/mL (≈ 0.886 µM), an MIC ([24]; Run 2, Ec-55) of 0.4 µg/mL (≈ 0.886 µM) and an MIC ([25]; A9930, Run 1) of 0.4 µg/mL (≈ 0.886 µM). It also gave an MIC ([25]; A9930, Run 2) of 0.4 µg/mL (≈ 0.886 µM), an MIC ([26]; A20364NPT1, Run 1) of 1.6 µg/mL (≈ 3.54 µM) and an MIC ([26]; A20364NPT1, Run 2) of 1.6 µg/mL (≈ 3.54 µM). It also gave an MIC ([27]; D11, Run 1) of 0.2 µg/mL (≈ 0.443 µM), an MIC ([27]; D11, Run 2) of 0.4 µg/mL (≈ 0.886 µM) and an MIC ([28]; Escherichia coli, JR88CAT1) of 3.1 µg/mL (≈ 6.87 µM). The MIC ([28]; Run 2, Ec-62) was 3.1 µg/mL (≈ 6.87 µM), the MIC ([29]; Klebsiella pneumoniae, Run 1, read-out: MIC) was 25 µg/mL (≈ 55.4 µM) and the MIC ([29]; Run 2) was 25 µg/mL (≈ 55.4 µM). It also gave an MIC ([30]; Escherichia coli, Run 1, read-out: MIC) of 0.8 µg/mL (≈ 1.77 µM), an MIC ([30]; Run 2) of 0.8 µg/mL (≈ 1.77 µM) and an MIC ([31]; Run 2) of 3.1 µg/mL (≈ 6.87 µM). For the same compound, the MIC [31, 34] was 3.1 µg/mL (≈ 6.87 µM), the MIC ([32]; Pseudomonas aeruginosa, GN315, Run 2, read-out: MIC) was > 100 µg/mL and the MIC ([32]; Run 1) was > 100 µg/mL. The MIC ([33]; ML1630NPT1, Run 1) was 1.6 µg/mL (≈ 3.54 µM) and the MIC ([33]; ML1630NPT1, Run 2) was 0.8 µg/mL (≈ 1.77 µM).
